Experimental data as given in patent US20220081470A1, “THIAZOLYL PEPTIDES FOR THE TREATMENT NONTUBERCULOUS MYCOBACTERIAL INFECTIONS” (priority 2019, published 2022).
In brackets after ≈: the same amount, converted by molar mass. Like-named read-outs stand apart in the source and are kept apart here.

Key:
[1] = system: Mycobacterium abscessus; experiment: Minimum Bactericidal Concentration (MBC); assay type: cell-based; settings: Mycobacteroides abscessus; M.abscessess
[2] = system: Mycobacterium intracellulare; experiment: MIC by broth dilution (CLSI M24), resazurin readout; assay type: cell-based; settings: M.intracellulare
[3] = system: Mycobacterium nonchromogenicum; experiment: as above; assay type: cell-based; settings: Mycolicibacter nonchromogenicus
[4] = system: Mycobacterium intracellulare; experiment: Minimum Bactericidal Concentration (MBC); assay type: cell-based; settings: M.intracellulare
[5] = system: Mycobacterium fortuitum; experiment: MIC by broth dilution (CLSI M24), resazurin readout; assay type: cell-based; settings: Mycolicibacterium fortuitum; M.fortuitum
[6] = system: Mycobacterium kansasii; experiment: as above; assay type: cell-based; settings: M.kansasii
[7] = system: Mycobacterium avium; experiment: Minimum Bactericidal Concentration (MBC); assay type: cell-based; settings: M.avium
[8] = system: Mycobacterium gordonae; experiment: Minimum Bactericidal Concentration (MBC); assay type: cell-based; settings: M.gordonae
[9] = system: Mycobacterium abscessus; experiment: MIC by broth dilution (CLSI M24), resazurin readout; assay type: cell-based; settings: Mycobacteroides abscessus; M.abscessess
[10] = system: M. intracellulare in THP-1 macrophages; experiment: Intracellular efficacy in THP-1 macrophages; assay type: cell-based, Mycobacterium intracellulare
Procedure: (§1) To test drug efficacy against slow or non-replicating bacilli in the intracellular compartment, THP-1 cells were grown in RPMI medium supplemented with […] sodium pyruvate, 200 mM L-glutamine, 3.7 g of sodium bicarbonate (Sigma) per litre, and 10% foetal calf serum (Gibco-BRL Life Technologies) without any antibiotics. The macrophages were seeded in 96-well plates at a density of approximately 5×10^5 cells/flask, incubated overnight, and were induced by 50 nM phorbol 12-myristate 13-acetate (PMA) to achieve macrophage differentiated phenotypesat 37° C./48-72 hr/5% CO2 atmosphere. After 48 hr of activation, the THP-1 macrophages were infected with respective NTM strains at a multiplicity of infection (MOI) of 1:10/2 h at 37° C. with 5% CO2. The macrophage monolayers were washed twice with […] of phosphate-buffered saline (+Ca^2++Mg^2+) to remove the free bacteria. Sets of triplicate wells were lysed (0.05% SDS) at specific timepoints, and enumerated to estimate the numbers of intracellular NTM 2 h post-infection.
(§2) The residual intracellular viable mycobacteria were enumerated at 0, 3, 5, and 7 day on Middlebrook 7H11 agar plates. […] Inhibitory sigmoidal curves were generated by plotting the log10 cfu/ml against the Cbroth/MIC ratio and the AUC/MIC ratio.

[11] = system: Mycobacterium fortuitum; experiment: Minimum Bactericidal Concentration (MBC); assay type: cell-based; settings: Mycolicibacterium fortuitum; M.fortuitum
[12] = system: M. avium in THP-1 macrophages; experiment: Intracellular efficacy in THP-1 macrophages; assay type: cell-based, Mycobacterium avium
Procedure: as §1, §2

[13] = system: Mycobacterium kansasii; experiment: Minimum Bactericidal Concentration (MBC); assay type: cell-based; settings: M.kansasii
[14] = system: M. kansasii in THP-1 macrophages; experiment: Intracellular efficacy in THP-1 macrophages; assay type: cell-based, Mycobacterium kansasii
Procedure: as §1, §2

[15] = system: M. fortuitum in THP-1 macrophages; experiment: Intracellular efficacy in THP-1 macrophages; assay type: cell-based, Mycobacterium fortuitum
Procedure: as §1, §2

[16] = system: M. gordonae in THP-1 macrophages; experiment: Intracellular efficacy in THP-1 macrophages; assay type: cell-based, Mycobacterium gordonae
Procedure: as §1, §2

[17] = system: Mycobacterium avium; experiment: MIC by broth dilution (CLSI M24), resazurin readout; assay type: cell-based; settings: M.avium
[18] = system: Mycobacterium gordonae; experiment: as above; assay type: cell-based; settings: M.gordonae
[19] = system: M. nonchromogenicum in THP-1 macrophages; experiment: Intracellular efficacy in THP-1 macrophages; assay type: cell-based, Mycobacterium nonchromogenicum
Procedure: as §1, §2

[20] = system: M. abscessus in THP-1 macrophages; experiment: Intracellular efficacy in THP-1 macrophages; assay type: cell-based, Mycobacterium abscessus; settings: M.abscessess in THP-1 macrophages
Procedure: as §1, §2

[21] = system: Mycobacterium nonchromogenicum; experiment: Minimum Bactericidal Concentration (MBC); assay type: cell-based; settings: Mycolicibacter nonchromogenicus
[22] = system: M. avium; experiment: In vitro drug combination study, checkerboard method; assay type: cell-based, Mycobacterium avium; settings: for MIC: Mycobacterium avium, 144 h, drug alone, checkerboard, read-out: Individual MIC; for FIC index / Outcome: in combination with PM181108A
[23] = system: M. gordonae; experiment: as above; assay type: cell-based, Mycobacterium gordonae; settings: for MIC: Mycobacterium gordonae, 144 h, drug alone, checkerboard, read-out: Individual MIC; for FIC index / Outcome: in combination with PM181108A
[24] = M.nonchromogenicum, read-out: MIC
[25] = M.nonchromogenicum, read-out: MBC

Row | SMILES | MBC [1] [mg/L] | MIC [2] [mg/L] | MIC [3] [mg/L] | MBC [4] [mg/L] | MIC [5] [mg/L] | MIC [6] [mg/L] | MBC [7] [mg/L] | MBC [8] [mg/L] | MIC [9] [mg/L] | IC Emax (intracellular efficacy) [10] [log10 cfu/ml] | MBC [11] [mg/L] | IC Emax (intracellular efficacy) [12] [log10 cfu/ml] | MBC [13] [mg/L] | IC Emax (intracellular efficacy) [14] [log10 cfu/ml] | IC Emax (intracellular efficacy) [15] [log10 cfu/ml] | IC Emax (intracellular efficacy) [16] [log10 cfu/ml] | MIC [17] [mg/L] | MIC [18] [mg/L] | IC Emax (intracellular efficacy) [19] [log10 cfu/ml] | IC Emax (intracellular efficacy) [20] [log10 cfu/ml] | also measured
1 | COc1c(N2C[C@@H]3CCCN[C@@H]3C2)c(F)cc2c(=O)c(C(=O)O)cn(C3CC3)c12 [Moxifloxacin] | 4 (≈ 9.96 µM) | 0.5 (≈ 1.25 µM) | 2 (≈ 4.98 µM) | 1 (≈ 2.49 µM) | < 0.06 | 2 (≈ 4.98 µM) | 8 (≈ 19.9 µM) | 4 (≈ 9.96 µM) | 2 (≈ 4.98 µM) | 1.46 | 0.25 (≈ 0.623 µM) | 1.00 | 8 (≈ 19.9 µM) | 1.93 | 1.60 | 1.23 | 4 (≈ 9.96 µM) | 2 (≈ 4.98 µM) | 0.34 | 1.00 | MBC [21]: 16 mg/L (≈ 39.9 µM)
2 | C=C(NC(=O)C(=C)NC(=O)c1csc(C2=N[C@@H]3c4csc(n4)[C@H]4NC(=O)c5csc(n5)[C@H]([C@](C)(O)[C@@H](C)O)NC(=O)[C@H]5CSC(=N5)/C(=C/C)NC(=O)[C@H]([C@@H](C)O)NC(=O)c5csc(n5)[C@]3(CC2)NC(=O)[C@H](C)NC(=O)C(=C)NC(=O)[C@H](C)NC(=O)[C@H]([C@@H](C)CC)N[C@@H]2C=Cc3c([C@H](C)O)cc(nc3[C@H]2O)C(=O)O[C@@H]4C)n1)C(N)=O [Thiostrepton] | 32 (≈ 19.2 µM) | 0.13 (≈ 0.0781 µM) |  | 1 (≈ 0.601 µM) | 2 (≈ 1.2 µM) | 1 (≈ 0.601 µM) | 2 (≈ 1.2 µM) | 2 (≈ 1.2 µM) | 0.5 (≈ 0.3 µM) | 0.67 | > 32 | 1.19 | 16 (≈ 9.61 µM) | 1.56 | 0.00 | 0.72 | 1 (≈ 0.601 µM) | 0.5 (≈ 0.3 µM) | 0.49 | 0.00 | MIC [3, 24]: 0.5 mg/L (≈ 0.3 µM); MBC [21, 25]: 16 mg/L (≈ 9.61 µM)
3 | CC[C@H]1OC(=O)[C@H](C)[C@@H](O[C@H]2C[C@@](C)(OC)[C@@H](O)[C@H](C)O2)[C@H](C)[C@@H](O[C@@H]2O[C@H](C)C[C@H](N(C)C)[C@H]2O)[C@](C)(OC)C[C@@H](C)C(=O)[C@H](C)[C@@H](O)[C@]1(C)O [Clarithromycin] | 32 (≈ 42.8 µM) | 0.13 (≈ 0.174 µM) | 0.25 (≈ 0.334 µM) | 0.5 (≈ 0.668 µM) | 32 (≈ 42.8 µM) | 0.5 (≈ 0.668 µM) | 2 (≈ 2.67 µM) | 1 (≈ 1.34 µM) | 2 (≈ 2.67 µM) | 1.78 | > 32 | 1.00 | 2 (≈ 2.67 µM) | 0.91 | 0.35 | 1.26 | 0.5 (≈ 0.668 µM) | 0.5 (≈ 0.668 µM) | 0.82 | 0.70 | MIC [22]: 1 mg/L; FIC index [22]: 0.46; Outcome [22]: Synergy (≤0.5, synergism); MIC [23]: 1 mg/L; FIC index [23]: 0.46; Outcome [23]: Synergy (≤0.5, synergism); MBC [21]: 4 mg/L (≈ 5.35 µM)
4 | NCC[C@H](O)C(=O)N[C@@H]1C[C@H](N)[C@@H](O[C@H]2O[C@H](CN)[C@@H](O)[C@H](O)[C@H]2O)[C@H](O)[C@H]1O[C@H]1O[C@H](CO)[C@@H](O)[C@H](N)[C@H]1O [Amikacin] | 16 (≈ 27.3 µM) | 1 (≈ 1.71 µM) | 2 (≈ 3.42 µM) | 2 (≈ 3.42 µM) | 2 (≈ 3.42 µM) | 4 (≈ 6.83 µM) | 8 (≈ 13.7 µM) | 8 (≈ 13.7 µM) | 4 (≈ 6.83 µM) |  | 2 (≈ 3.42 µM) |  | 16 (≈ 27.3 µM) |  |  |  | 2 (≈ 3.42 µM) | 2 (≈ 3.42 µM) |  |  | MIC [22]: 4 mg/L; FIC index [22]: 0.80; Outcome [22]: Additive (>0.5-4.0, addition or indifference); MIC [23]: 4 mg/L; FIC index [23]: 0.90; Outcome [23]: Additive (>0.5-4.0, addition or indifference); MBC [21]: 8 mg/L (≈ 13.7 µM)
5 | CO[C@H]1/C=C/O[C@@]2(C)Oc3c(C)c(O)c4c(O)c(c(/C=N/N5CCN(C)CC5)c(O)c4c3C2=O)NC(=O)/C(C)=C\C=C\[C@H](C)[C@H](O)[C@@H](C)[C@@H](O)[C@@H](C)[C@H](OC(C)=O)[C@@H]1C [Rifampicin] | 32 (≈ 38.9 µM) | 0.06 (≈ 0.0729 µM) |  | 0.25 (≈ 0.304 µM) | 4 (≈ 4.86 µM) | 0.13 (≈ 0.158 µM) | 1 (≈ 1.22 µM) | 8 (≈ 9.72 µM) | 16 (≈ 19.4 µM) | 0.44 | > 32 | 1.04 | 16 (≈ 19.4 µM) |  | 0.00 | 1.36 | 0.25 (≈ 0.304 µM) | 0.25 (≈ 0.304 µM) | 0.82 | 0.00 | MIC [3, 24]: 0.13 mg/L (≈ 0.158 µM); MIC [22]: 0.5 mg/L; Outcome [22]: Additive (>0.5-4.0, addition or indifference); MIC [23]: 0.5 mg/L; Outcome [23]: Synergy (≤0.5, synergism); MBC [21, 25]: 32 mg/L (≈ 38.9 µM)
